{
  "source": "patent US7282599B2",
  "about": "“Dithiocarbamate antiviral agents and methods of using same” (Avir Green Hills Biotechnology Research Devlopment Trade AG, priority 2001, dated 2007)",
  "key": {"HRV2 [1]": {"tested_on": "HRV2", "experiment": "Time of addition, viral titers in supernatants of HRV2-infected cells", "format": "cell-based, human rhinovirus", "method": "Similar results were obtained if the viral titers (vt) were determined in the supernatants of infected and PDTC-treated cells (see FIG. 4B). Addition of PDTC up to four hours after infection reduced the titer of the HRV2 produced by 10^3."}, "[2]": {"tested_on": "rhinoviral proteins VP1, VP2 and VP3", "experiment": "Western blot of HRV2 capsid proteins in infected HeLa cells", "format": "cell-based, human rhinovirus", "conditions": "HRV2 100 TCID50 per cell", "from_the_text": "To determine the effect of PDTC on the expression of viral proteins, capsid proteins of HRV2 were detected by Western blot analysis in protein extracts from HRV2-infected HeLa cells (100 TCID50 per cell) (see FIG. 6). The Western blot analysis was done as described above in Example 5, with use of a polyclonal rabbit antiserum against HRV2. Significant amounts of the rhinoviral proteins VP1, VP2 and VP3 were detected in untreated cells six hours after infection."}, "HRV2 [3]": {"tested_on": "HRV2", "experiment": "Crystal violet staining of cell lawn of HRV2-infected HeLa cells", "format": "cell-based, human rhinovirus", "conditions": "HRV2 100 TCID50 per cell, compound added 1 hour after infection, stained after 24 hours"}, "A/Vienna/47/96": {"tested_on": "A/Vienna/47/96", "experiment": "microbe, parasite or virus in culture", "format": "cell-based, influenza A virus", "conditions": "4 days"}, "[4]": {"tested_on": "equine rhinitis A virus (ERAV)", "format": "cell-based", "conditions": "vero cells, 10 TCID50 ERAV per cell, PDTC 1 mM-50 μM, 24 hours after infection", "method": "The reduction of ERAV viral propagation by addition of PDTC was investigated as follows: vero cells were infected with 10 TCID50 ERAV per cell. At the same time, PDTC was added at different concentrations (1 mM-50 μM). The inoculum was removed 4 hours after infection, and fresh medium with PDTC was added. The supernatants were removed 24 hours after the infection, and the viral titers were determined in a standard plate assay."}, "FMV virus O-Manisa": {"tested_on": "FMV virus O-Manisa", "format": "cell-based, foot and mouth disease virus", "conditions": "IB-RS-2 cells, 0.001 TCID50 per cell, PDTC up to 200 μM, 24 hours after infection"}, "EMC virus": {"tested_on": "EMC virus", "experiment": "Mice infected intraperitoneally with EMC virus, intraperitoneal treatment", "format": "in vivo, C57B16 mice", "conditions": "50 μl of 50 mM PDTC per day i.p.", "method": "C57B16 mice were infected intraperitoneally with 10 TCID50 of EMC virus. Then, the control group was treated intraperitoneally once daily with PBS. Two other groups were treated with 50 μl of 50 mM PDTC per day. Treatment of one group (PDTC) was started simultaneously with the infection, while treatment of the other group (PDTC 24 hpi) was started only 24 hours after the infection."}, "influenza virus": {"tested_on": "influenza virus", "conditions": "Knobil et al., Am. J. Physiol. 1998; cited from earlier work"}},
  "data": [
    {"smiles": "S=C(S)N1CCCC1", "note": "[PDTC, pyrrolidine dithiocarbamate]", "values": [
      {"measurement": "viral titers produced", "setting": "HRV2 [1]; PDTC treatment started only 6 hours after infection", "value": "significantly reduced"},
      {"measurement": "reduction of the titer of the HRV2 produced", "setting": "HRV2 [1]; addition of PDTC up to four hours after infection", "value": "10^3"},
      {"measurement": "expression of VP1, VP2 and VP3", "setting": "[2]; about 24 hours after infection", "value": "Weak expression"},
      {"measurement": "expression of capsid proteins VP1, VP2 and VP3", "setting": "[2]; within the first 8 hours after infection", "value": "prevented expression of those capsid proteins"},
      {"measurement": "prevention of destruction of the cell lawn by HRV2 infection", "setting": "HRV2 [3]", "value": "can prevent that effect"},
      {"measurement": "inhibition at 1200 µM", "setting": "A/Vienna/47/96; Influenza A virus, 96 h, PDTC 1200 μM, read-out: inhibition (TCID50 assay)", "value": "> 99.9", "unit": "%"},
      {"measurement": "reduction of TCID50", "setting": "A/Vienna/47/96; PDTC 300 μM", "value": 82.2, "unit": "%"},
      {"measurement": "virus titer (vt) in the supernatant in comparison to untreated cells", "setting": "[4]", "value": "decreases"},
      {"measurement": "reduction of virus titer compared with the control sample", "setting": "FMV virus O-Manisa", "value": "more than 2 log steps"},
      {"measurement": "changes of the mouse weights after the beginning of the infection", "setting": "EMC virus; started with infection or 24 hours after", "value": "no difference in treated and untreated mice"},
      {"measurement": "average time to death for the infected mice", "setting": "EMC virus; every group: PBS, PDTC, PDTC 24 hpi", "value": 5.5, "unit": "days"},
      {"measurement": "inhibition of influenza virus infection or replication", "setting": "influenza virus", "value": "neither NAC nor PDTC inhibits influenza virus infection or replication"}
    ]}
  ]
}
